Results published in patent US20260109721A1, “IONIZABLE CATIONIC LIPIDS INCORPORATING SILICON: SYNTHESIS AND LNP FORMULATION” (priority 2023, published 2026).
Like-named read-outs stand apart in the source and are kept apart here.

Tests used:
[1] = LNP size, PDI and zeta potential by Dynamic Light Scattering (Method A); assay type: physicochemical; conditions: LNP formulated with the lipid, DLS
In short: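 Dynamic light scattering gave size, polydispersity and zeta potential of Method A nanoparticles. These were made from Luc mRNA in 10 mM citrate pH 4.0 combined with ethanol lipid master mix plus ionizable lipid on a dean-type chip (3:1, TFR around 12 ml/min).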

[2] = Encapsulation efficiency of loaded LNPs, RiboGreen RNA assay (Method A); assay type: physicochemical
In short: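 Encapsulation determined by RiboGreen fluorescence (excitation 480, emission 525) comparing Triton X-100–lysed and intact LNP wells, duplicates, after 10 min at 37° C and cooling to room temperature. Sample stocks ~4-7 μg/mL RNA in TE buffer; concentration from RNA standard curve.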

[3] = encapsulation efficiency of mRNA-loaded LNP, Method A, RiboGreen

Structure (SMILES) | PDI [1] | Size (nm) [1] [nm] | Zeta potential (mV) [1] [mV] | EE (%) [2, 3] [%] | EE (%) [2] [%]
CCCCCCCC/C=C\CCCCCCCC(OCC(CCCCCCCC)SCCCCCCCCCC)O[Si](C)(C)OCCCCCCN(CCO)CCO (stereo not drawn) [Example 73, (Z)-13-(heptadec-8-en-1-yl)-3-(2-hydroxyethyl)-11,11-dimethyl-16-octyl-10,12,14-trioxa-17-thia-3-aza-11-silaheptacosan-1-ol] | 0.16 | 86.3 | −17.46 | 87 | –
CCCCCCCC/C=C\CCCCCCCC(OCCCCCCCCCCCC1CCCCC1)O[Si](C)(C)OCCCCCCN(CCO)CCO (stereo not drawn) [Example 74, (Z)-25-cyclohexyl-13-(heptadec-8-en-1-yl)-3-(2-hydroxyethyl)-11,11-dimethyl-10,12,14-trioxa-3-aza-11-silapentacosan-1-ol] | 0.19 | 73.11 | −9.76 | 87 | –
CCCCCCCC/C=C\CCCCCCCC(OCCC(C)CCCC(C)CCCC(C)CCCC(C)C)O[Si](C)(C)OCCCCCCN(CCO)CCO (stereo not drawn) [Example 75, (Z)-13-(heptadec-8-en-1-yl)-3-(2-hydroxyethyl)-11,11,17,21,25,29-hexamethyl-10,12,14-trioxa-3-aza-11-silatriacontan-1-ol] | 0.18 | 76.35 | −13.40 | 89 | –
CCCCCCCC/C=C\CCCCCCCC(OCCCCCCCCCCCCCCC(C)C)O[Si](C)(C)OCCCCCCN(CCO)CCO (stereo not drawn) [Example 76, (Z)-13-(heptadec-8-en-1-yl)-3-(2-hydroxyethyl)-11,11,29-trimethyl-10,12,14-trioxa-3-aza-11-silatriacontan-1-ol] | 0.2 | 108.4 | −19.39 | 80 | –
CCCCC/C=C\C/C=C\CCCCCCCCOC(CCCCCCC/C=C\C/C=C\CCCCC)O[Si](C)(C)OCCCCCCN(C)[C@H](CO)Cc1ccccc1 (stereo partly drawn) [Example 77, (2S,23Z,26Z)-2-benzyl-13-((8Z,11Z)-heptadeca-8,11-dien-1-yl)-3,11,11-trimethyl-10,12,14-trioxa-3-aza-11-siladotriaconta-23,26-dien-1-ol] | 0.05 | 90.59 | −10.95 | 85 | –
CCCCCCCC/C=C\CCCCCCCCOC(CCCCCCC/C=C\CCCCCCCC)O[Si](C)(C)OCCCCCCN(C)[C@H](CO)Cc1ccccc1 (stereo partly drawn) [Example 78, (2S,Z)-2-benzyl-13-((Z)-heptadec-8-en-1-yl)-3,11,11-trimethyl-10,12,14-trioxa-3-aza-11-siladotriacont-23-en-1-ol] | 0.10 | 92.14 | −19.77 | 87 | –
CCCCC/C=C\C/C=C\CCCCCCCCOC(CCCCCCC/C=C\C/C=C\CCCCC)O[Si](C)(C)OCCCCCCN(C)C (stereo not drawn) [Example 79, (20Z,23Z)-10-((8Z,11Z)-heptadeca-8,11-dien-1-yl)-N,N,8,8-tetramethyl-7,9,11-trioxa-8-silanonacosa-20,23-dien-1-amine] | 0.09 | 102.1 | −2425 | – | 83
CCCCC/C=C\C/C=C\CCCCCCCCO[Si](C)(C)OC(CCCCCCC/C=C\C/C=C\CCCCC)OCCCN(C)C (stereo not drawn) [Example 80, (17Z,20Z)-5-((8Z,11Z)-heptadeca-8,11-dien-1-yl)-N,N,7,7-tetramethyl-4,6,8-trioxa-7-silahexacosa-17,20-dien-1-amine] | 0.11 | 90.19 | −26.51 | – | 83
CCCCC/C=C\C/C=C\CCCCCCCCO[Si](C)(C)OC(CCCCCCC/C=C\CCCCCCCC)OCCCN(C)C (stereo not drawn) [Example 81, (17Z,20Z)-5-((Z)-heptadec-8-en-1-yl)-N,N,7,7-tetramethyl-4,6,8-trioxa-7-silahexacosa-17,20-dien-1-amine] | 0.10 | 104 | −25.24 | – | 86
CCCCC/C=C\C/C=C\CCCCCCCCOC(CCCCCCC/C=C\C/C=C\CCCCC)O[Si](C)(C)O[Si](C)(C)CCCCCCN(CCO)CCO (stereo not drawn) [Example 82, (24Z,27Z)-14-((8Z,11Z)-heptadeca-8,11-dien-1-yl)-3-(2-hydroxyethyl)-10,10,12,12-tetramethyl-11,13,15-trioxa-3-aza-10,12-disilatritriaconta-24,27-dien-1-ol] | 0.26 | 97.5 | −16.31 | 80 | –
CCCCCCCC/C=C\CCCCCCCCOC(=O)C(C)(C)CC(OCCCCCCCC/C=C\CCCCCCCC)O[Si](C)(C)OCCCCCCN(CCO)CCO (stereo not drawn) [Example 84, (Z)-octadec-9-en-1-yl 1-hydroxy-3-(2-hydroxyethyl)-11,11,15,15-tetramethyl-13-(((Z)-octadec-9-en-1-yl)oxy)-10,12-dioxa-3-aza-11-silahexadecan-16-oate] | 0.15 | 71.7 | −16.66 | 90 | –
CCCCCCCC/C=C\CCCCCCCCOC(=O)C(C)(C)CC(OCCCCCCCC/C=C\CCCCCCCC)O[Si](C)(C)OCCCCCCN1CCOCC1 (stereo not drawn) [Example 85, (Z)-octadec-9-en-1-yl 4-((dimethyl((6-morpholinohexyl)oxy)silyl)oxy)-2,2-dimethyl-4-(((Z)-octadec-9-en-1-yl)oxy)butanoate] | 0.1 | 96.37 | −14.54 | 90 | –
CCCCCCCC/C=C\CCCCCCCCOC(=O)C(C)(C)CC(OCCCCCCCC/C=C\CCCCCCCC)O[Si](C)(C)OCCCCCCN(CCCCO)CCCCO (stereo not drawn) [Example 86, (Z)-octadec-9-en-1-yl 18-hydroxy-14-(4-hydroxybutyl)-2,2,6,6-tetramethyl-4-(((Z)-octadec-9-en-1-yl)oxy)-5,7-dioxa-14-aza-6-silaoctadecanoate] | 0.25 | 109.7 | −13.69 | 87 | –
CCCCCCCC/C=C\CCCCCCCCOC(=O)C(C)(C)CC(OCCCCCCCC/C=C\CCCCCCCC)O[Si](C)(C)OCCCCCCN1CCCCC1 (stereo not drawn) [Example 87, (Z)-octadec-9-en-1-yl 4-((dimethyl((6-(piperidin-1-yl)hexyl)oxy)silyl)oxy)-2,2-dimethyl-4-(((Z)-octadec-9-en-1-yl)oxy)butanoate] | 0.06 | 101.8 | −12.28 | 89 | –
CCCCCCCC/C=C\CCCCCCCCOC(=O)C(C)(C)CC(OCCCCCCCC/C=C\CCCCCCCC)O[Si](C)(C)OCCCCCCN(CCCO)CCCO (stereo not drawn) [Example 88, (Z)-octadec-9-en-1-yl 1-hydroxy-4-(3-hydroxypropyl)-12,12,16,16-tetramethyl-14-(((Z)-octadec-9-en-1-yl)oxy)-11,13-dioxa-4-aza-12-silaheptadecan-17-oate] | 0.21 | 86.51 | −7.76 | 87 | –
CCCCCCCC/C=C\CCCCCCCCOC(=O)C(C)(C)CC(OCCCCCCCC/C=C\CCCCCCCC)O[Si](C)(C)OCCCCCCN1CCCCC1CO (stereo not drawn) [Example 89, (Z)-octadec-9-en-1-yl 4-((((6-(2-(hydroxymethyl)piperidin-1-yl)hexyl)oxy)dimethylsilyl)oxy)-2,2-dimethyl-4-(((Z)-octadec-9-en-1-yl)oxy)butanoate] | 0.12 | 97.17 | −10.93 | 89 | –
CCCCCCCC/C=C\CCCCCCCCOC(=O)C(C)(C)CC(OCCCCCCCC/C=C\CCCCCCCC)O[Si](C)(C)OCCCCCCN1CCCC1CO (stereo not drawn) [Example 90, (Z)-octadec-9-en-1-yl 4-((((6-(2-(hydroxymethyl)pyrrolidin-1-yl)hexyl)oxy)dimethylsilyl)oxy)-2,2-dimethyl-4-(((Z)-octadec-9-en-1-yl)oxy)butanoate] | 0.14 | 100.2 | −16.19 | 87 | –
CCCCCCCC/C=C\CCCCCCCCOC(=O)C(C)(C)CC(OCCCCCCCC/C=C\CCCCCCCC)O[Si](C)(C)OCCCCCCN(C)CCCCO (stereo not drawn) [Example 91, (Z)-octadec-9-en-1-yl 18-hydroxy-2,2,6,6,14-pentamethyl-4-(((Z)-octadec-9-en-1-yl)oxy)-5,7-dioxa-14-aza-6-silaoctadecanoate] | 0.17 | 85.49 | −15.27 | 88 | –
